This is an account of results in ChEMBL document CHEMBL2384942, “Modulation of acridine mutagen ICR191 intercalation to DNA by methylxanthines--analysis with mathematical models” (Bioorg Med Chem, 2013).

In series [1] the test system is Salmonella typhimurium. As to the kind of experiment: Protective effect in Salmonella typhimurium TA98 assessed as decrease in ICR191-induced mutagenic effect at 0.05 to 2000 ug/plate after 4 hrs by Ames test. Type of series: functional, organism-based. Particulars: Salmonella enterica subsp. enterica serovar Typhimurium. For orientation: The Ames test uses bacterial strains that need an amino acid and regain growth without it when mutated back.

Series [2] concerns Salmonella typhimurium. As to the kind of experiment: Mutagenic activity in Salmonella typhimurium TA98 at 2 mg/plate after 4 hrs by Ames test. Particulars: salmonella enterica subsp. enterica serovar typhimurium. Type of series: toxicity, organism-based.
The test system of series [3] is Salmonella typhimurium. As to the kind of experiment: Mutagenic activity in Salmonella typhimurium TA98 at 0.1 ug/plate after 4 hrs by Ames test. Type of series: toxicity, organism-based. Particulars: salmonella enterica subsp. enterica serovar typhimurium.
Series [4] deals with MDBK. As to the kind of experiment: Binding affinity to ICR191 in MDBK cells assessed as decrease in formation of mutagen-chromatin complex at 1 to 12 mM by spectrophotometric analysis. Type of series: cell-based.
For series [5], the system named is MDBK. As to the kind of experiment: Binding affinity to ICR191 in MDBK cells assessed as decrease in molar fraction of free mutagen at 1 to 12 mM by spectrophotometric analysis. Type of series: cell-based.

The structures appear in SMILES notation. Calls of active or inactive are those of the source. The calls are words filed in the database; no cut-off is given here.

Regarding `CC(=O)CCCCn1c(=O)c2c(ncn2C)n(C)c1=O` [PENTOXIFYLLINE], the result with Salmonella typhimurium [1] was Active. The Activity result in the series on Salmonella typhimurium [2] is given as “Non-toxic”.
As to `COc1ccc2nc3cc(Cl)ccc3c(NCCCNCCCl)c2c1.Cl.Cl.Cl.Cl`, the Activity result with Salmonella typhimurium [3] was “Non-toxic”.
Take `Cn1c(=O)c2c(ncn2C)n(C)c1=O`: the result in the series on MDBK [4] and with MDBK [5] was Active.
